# Measurements: patent US7635788B2, “Alpha-amino acid derivatives with antiinflammatory activity” (Italfarmaco SpA, priority 2004, dated 2009)
# Experiments:
# [1] = tested on: TNFα production by peripheral blood mononucleocytes stimulated with LPS; experiment: Inhibition of TNFα production by human monocytes stimulated with LPS; assay type: cell-based; details: LPS 10 ng/ml, 24 hours, ELISA
# Experimental: The compounds were dissolved in DMSO at a final concentration of 10 mM.
# The solutions for the assay were prepared by diluting the mother solutions in RPMI 1640 with the addition of 1% FCS and 0.01% DMSO and were filtered with 0.2 μm filters.
# The peripheral blood mononucleocytes were obtained from blood from healthy donors by separation in a Ficoll-Hypaque gradient [C. G. Figdor, et al. Blood, 1982, 60: 46-53]. The cells were sown in 96-well plates, at a concentration of approx. 500,000 cells per well, suspended in RPMI 1640 containing 1% FCS and were incubated at 37° C. in the presence of different concentrations (from 10^−6 to 10^−11M) of the compounds to be investigated. After 1 hour, LPS was added (at a final concentration of 10 ng/ml; obtained from E. coli 055:B5) and the plates were incubated at 37° C. for a further 24 hours. At the end of this period, the supernatants were collected and used for the determination of TNFα content by means of ELISA (DuoSet ELISA kit; R&D Systems, Minneapolis, Minn., USA).
# The concentration of TNFα was calculated using a calibration curve and the IC50 values (the concentration which brings about 50% inhibition of the production of the cytokine) were calculated from the curve obtained by plotting the percentage inhibition values for each individual concentration of the compound under investigation.
# [2] = tested on: human hepatoma cell line Hep-G2; experiment: Cytotoxicity towards tumour cells in vitro (Cell Titer 96 formazane colorimetric assay); assay type: cell-based; details: 48 h, percentage inhibition of the formation of formazane relative to the control
# Experimental: The cytotoxicity of some compounds described in the preceding Examples was evaluated in vitro on human hepatoma cell line Hep-G2, by means of a commercial colorimetric method (Cell Titer 96® Aque ous One Solution Cell Proliferation Assay—Promega); the method determines the number of viable cells on the basis of their capacity to metabolise a tetrazolium salt producing formazane. The quantity of formazane produced is proportional to the number of viable cells.
# The Hep-G2 cells are distributed 96 well microplates at a density of 4×10^4 cells/well (100 μl), in M199 medium containing 10% foetal bovine serum and supplements (complete medium).
# After 24 hours' incubation (37° C., 5% CO2, 90% humidity), the cells are washed once and the medium is replenished with 200 μl of complete medium containing the substances to be tested at the final concentration of 10^−5, 10^−6 and 10^−7M. The test is performed in triplicate.
# The plates are incubated for a further 48 h, at the end of which 100 μl of medium are removed and 20 μl/well of staining solution are added in accordance with the supplier's instructions. Optical density (λ=490 nm) is read after 1 hour's incubation at 37° C. using a plate reader (Victor2—Wallac Perkin Elmer).
structure (smiles),measurement,setting,value
"O=C(NO)c1ccc(NC(=O)[C@H](Cc2ccc(-c3ccccc3)cc2)NC(=O)c2ccc3ccccc3c2)cc1 [Example 2y, N-[1(S)-(4-hydroxycarbamoyl-phenylcarbamoyl)-2-(biphenyl-4-yl)-ethyl]-amide of naphthalene-2-carboxylic acid]",IC50,[1],21.3 nM
same,Cytotoxicity at 10^−5 M,[2]; 10^−5 M,73.7%
same,Cytotoxicity at 10^−6 M,[2]; 10^−6 M,20.4%
